Measurements reported in patent US7902422B2 (priority 2004, dated 2011).
Where a SMILES comes first, the peptide text is derived from it. [ ]: non-standard residue; d: D form. The star is where a group is joined. Nva = CCC[C@H](N)C(=O)O; Cbz = O=C(OCc1ccccc1)*

Tests used:
[1] = system: transgenically overexpressed EIN3 protein; type: in vivo, Arabidopsis; conditions: for abundance of transgenically overexpressed EIN3 protein: EIN3ox seedlings grown in air, MG132 50 μM, MG115 50 μM, Pefabloc SC 100 μM, 4 hr
Experimental: (§1) Ethylene treatment of Arabidopsis seedlings grown on plates was performed in containers by flowing through hydrocarbon-free air supplemented with 10 ppm (parts per million) ethylene or were treated with hydrocarbon-free air alone (Kieber et al., Cell 72, 427-441, 1993). For drug treatments, Arabidopsis suspension cell cultures were treated with MG132 (50 μM), MG115 (50 μM), Pefabloc SC (100 μM) or DMSO (0.1%) for a time course study. Alternatively, etiolated seedlings were germinated for three days on a disc of Whatman paper resting on the surface of MS medium. MG132 (50 μM), MG115 (50 μM), Pefabloc SC (100 μM) or DMSO (0.1%) was added to the paper discs for 4 hr. Cycloheximide (100 μM) was added to the paper discs and ethylene or air was applied for different amounts of time.

[2] = system: EIN3-GFP fusion protein; assay: EIN3-GFP nuclear accumulation, fluorescence microscopy of transgenic seedlings; type: in vivo, Arabidopsis; conditions: for abundance of EIN3-GFP in the nucleus: hypocotyl and root cells, ACC 50 μM or MG132 50 μM, absence of ethylene for MG132
Experimental: Transgenic seedlings that expressed a functional EIN3-GFP fusion protein were mounted on glass slides using PBS as a mounting medium. All images were collected on a fluorescence microscope (Olympus BX60) and the color of the images was artificially added in Photoshop 5.0 (Adobe Systems). For the time course experiment, after the first cell image was taken, 50 μM of ACC or MG132 was applied to the slide and the same cell was followed for 4 hr.

[3] = system: EIN3 protein; assay: EIN3 protein immunoblot, Arabidopsis suspension cell cultures; type: cell-based; conditions: suspension cells; MG132 50 μM (after 30 min), MG115 50 μM, Pefabloc SC 100 μM
Experimental: as §1

[4] = system: EIN3 protein; assay: EIN3 protein immunoblot, etiolated wild-type seedlings; type: in vivo, Arabidopsis
Experimental: With the exception of eto2 in Landsberg erecta (Ler) background, the ecotype Columbia (Col-0) was the parent strain for all mutant and transgenic lines described herein. Arabidopsis seeds were surface-sterilized and plated on the surface of MS medium (4.3 g MS salts, 10 g sucrose, pH 5.7, 8 g bactoagar per liter). After 3-4 days in the light at 4° C., the plates were wrapped in foil and kept in a 24° C. incubator before the phenotypes of seedlings were analyzed. For propagation, seedlings from plates were transferred to soil (Promix-HP) and grown to maturity at 22° C. under a 16 hr light/8 hr dark cycle.
as §1

[5] = system: EBF1 gene; conditions: in vivo
Experimental: (§2) (A) Alignment of EBF1 (SEQ ID NO: 2) and EBF2 (SEQ ID NO: 4) amino acid sequences generated with ClustalW program. Identical amino acid residues in the two proteins are highlighted with black boxes. […] (B) Alignment of F-box motif sequences. […] Identities and similarities among the different proteins are highlighted by black and gray, respectively. Consensus residues are denoted by asterisks. […] Etiolated wild-type seedlings were treated with air (air) or ethylene (C2H4) for 4 hr before RNA was extracted for analysis. Each treatment was performed in replicate. The means of normalized intensity were used to indicate relative expression levels.

[6] = system: EBF2 gene; conditions: in vivo
Experimental: as §2

[7] = system: EIN3-GFP fusion protein; conditions: immunoblot, ethylene treatment
Experimental: Protein samples were prepared by homogenizing the powdered tissues in 2×SDS-PAGE sample buffer and boiling the homogenate for 5 min. After centrifugation, the protein extracts were fractionated by 4-12% gradient Tris-Glycine Novex precast gels (Invitrogen), blotted onto a nitrocellulose filter. The blot was probed first with anti-EIN3 antibody, and was subsequently stripped with 0.2 N glycine (pH 2.5) for 3 times and re-probed with either anti-CRY1 antibody (Lin et al., Proc Natl Acad Sci 92, 8423-8427, 1995) or anti-SUB1 antibody (Guo et al., Science 291, 487-490, 2001)
The triple response phenotype was scored in T2 seedlings originated from individual Kanamycin-resistant T1 plants. Transgenic seedlings that expressed a functional EIN3-GFP fusion protein were mounted on glass slides using PBS as a mounting medium. […] For the time course experiment, after the first cell image was taken, 50 μM of ACC or MG132 was applied to the slide and the same cell was followed for 4 hr.

CC(C)C[C@@H](C=O)NC(=O)[C@H](CC(C)C)NC(=O)[C@H](CC(C)C)NC(=O)OCc1ccccc1 [MG132] (Cbz-Leu-Leu-Leu-aldehyde)
abundance of transgenically overexpressed EIN3 protein [1]: similarly induced | abundance of EIN3-GFP in the nucleus [2]: rapid nuclear accumulation | levels of EIN3 protein (EIN3 abundance) [3]: markedly increased

NC1(C(=O)O)CC1 [ACC, aminocyclopropane-1-carboxylic acid]
time of ACC treatment after which EIN3-GFP accumulated in the nucleus ([2]; 50 μM ACC, time course, same cell followed for 4 hr): 1 h | abundance of EIN3-GFP in the nucleus [2]: substantially enhanced | levels of EIN3 protein ([4]; wild-type seedlings on medium with high concentrations of ACC (10 and 50 μM), 3 days): dramatically elevated

CCC[C@@H](C=O)NC(=O)[C@H](CC(C)C)NC(=O)[C@H](CC(C)C)NC(=O)OCc1ccccc1 [MG115] (Cbz-Leu-Leu-[Nva]-aldehyde)
abundance of transgenically overexpressed EIN3 protein [1]: similarly induced | levels of EIN3 protein (EIN3 abundance) [3]: enhanced EIN3 abundance

O=[N+]([O-])[O-].[Ag+] [silver ion, AgNO3]
ethylene-induced EIN3 accumulation ([4]; wild-type seedlings on MS medium with 100 μM AgNO3 for 3 days, ethylene 4 hr): no longer induced by ethylene

C=C [ethylene, Ethylene]
levels of transgenically overexpressed EIN3 protein ([1]; EIN3ox plants, ethylene gas 10 ppm): up-regulated | RNA level of EBF1 gene [5]: induced | RNA level of EBF2 gene [6]: induced | level of EIN3-GFP fusion protein [7]: dramatically increased | levels of EIN3 protein with de novo translation blocked ([4]; ethylene-pretreated (2 hr) wild-type seedlings, 100 μM cycloheximide, kept in ethylene): remained constitutively high | level of EIN3 protein ([4]; wild-type plants, ethylene gas 10 ppm, after 1 hr): markedly increased

Cl.NCCc1ccc(S(=O)(=O)F)cc1 [Pefabloc]
abundance of transgenically overexpressed EIN3 protein [1]: not | levels of EIN3 protein (EIN3 abundance) [3]: no effect
